# Measurements: patent US20240246964A1 (Arbutus Biopharma Corporation, priority 2021, published 2024)
# Biological target: human PD-L1 (Homo sapiens (Human), UniProt Q9NZQ7)
# Experiment: T cell activation luciferase reporter cell culture system (T Cell Activation Assay)
# Format: cell-based
# Conditions: luciferase reporter assay; PD-L1 aAPC/CHO-K1 cells with PD-1 effector Jurkat T cells
# Chain of human PD-L1 (Q9NZQ7 19-290): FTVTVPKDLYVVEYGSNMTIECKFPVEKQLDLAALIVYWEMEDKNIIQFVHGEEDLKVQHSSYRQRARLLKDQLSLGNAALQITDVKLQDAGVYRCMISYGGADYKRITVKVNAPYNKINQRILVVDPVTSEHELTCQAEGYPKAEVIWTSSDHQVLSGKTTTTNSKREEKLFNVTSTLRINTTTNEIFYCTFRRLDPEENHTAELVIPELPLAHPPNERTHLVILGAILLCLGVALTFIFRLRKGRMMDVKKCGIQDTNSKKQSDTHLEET
row,EC50 [nM],SMILES
1,416,"COc1cc(-c2nccc(-c3cccc(-c4ccc([C@H](C)N)c(OC)n4)c3Cl)c2Cl)ccc1[C@H](C)N [Example 393, (S)-1-(6-(3-(2-(4-((S)-1-Aminoethyl)-3-methoxyphenyl)-3-chloropyridin-4-yl)-2-chlorophenyl)-2-methoxypyridin-3-yl)ethan-1-amine]"
2,22.2,"COc1nc(-c2cccc(-c3ccnc(-c4ccc(CNC5CCN(C(C)=O)CC5)c(OC(F)F)c4)c3Cl)c2Cl)ccc1CNC1CCN(C(C)=O)CC1 [Example 394, 1-(4-(((6-(3-(2-(4-(((1-Acetylpiperidin-4-yl)amino)methyl)-3-(difluoromethoxy)phenyl)-3-chloropyridin-4-yl)-2-chlorophenyl)-2-methoxypyridin-3-yl)methyl)amino)piperidin-1-yl)ethan-1-one]"
3,81.8,"CNCc1ccc(-c2nccc(-c3cccc(-c4ccc(CNC)c(OC)n4)c3C)c2Cl)cc1OC [Example 395, 1-(6-(3-(3-Chloro-2-(3-methoxy-4-((methylamino)methyl)phenyl)pyridin-4-yl)-2-methylphenyl)-2-methoxypyridin-3-yl)-N-methylmethanamine]"
4,20.6,"COc1cc(-c2nccc(-c3cccc(-c4ccc(CN5CC6(CCC(=O)N6)C5)c(OC)n4)c3Cl)c2Cl)ccc1CN1CCC(NC(C)=O)CC1 [Example 401, N-(1-(4-(3-Chloro-4-(2-chloro-3-(6-methoxy-5-((6-oxo-2,5-diazaspiro[3.4]-octan-2-yl)methyl)pyridin-2-yl)phenyl)pyridin-2-yl)-2-methoxybenzyl)piperidin-4-yl)acetamide]"
5,44.6,"COc1cc(-c2nccc(-c3cccc(-c4ccc(CN5CC6(C5)CN(C(C)=O)C6)c(OC)n4)c3Cl)c2Cl)ccc1CN1CCC(NC(C)=O)CC1 [Example 402, N-(1-(4-(4-(3-(5-((6-acetyl-2,6-diazaspiro[3.3]heptan-2-yl)methyl)-6-methoxypyridin-2-yl)-2-chlorophenyl)-3-chloropyridin-2-yl)-2-methoxybenzyl)piperidin-4-yl)acetamide]"
6,18.9,"COc1cc(-c2nccc(-c3cccc(-c4ccc(CNC[C@@H]5CCC(=O)N5)c(OC)n4)c3Cl)c2Cl)ccc1CN1CCC(NC(C)=O)CC1 [Example 403, (S)—N-(1-(4-(3-Chloro-4-(2-chloro-3-(6-methoxy-5-((((5-oxopyrrolidin-2-yl)methyl)amino)methyl)pyridin-2-yl)phenyl)pyridin-2-yl)-2-methoxybenzyl)piperidin-4-yl)acetamide]"
7,23.9,"COc1cc(-c2nccc(-c3cccc(-c4ccc(CNC5CCN(C(C)=O)CC5)c(OC)n4)c3Cl)c2C#N)ccc1CNC1CCN(C(C)=O)CC1 [Example 404, 2-(4-(((1-Acetylpiperidin-4-yl)amino)methyl)-3-methoxyphenyl)-4-(3-(5-(((1-acetylpiperidin-4-yl)amino)methyl)-6-methoxypyridin-2-yl)-2-chlorophenyl)nicotinonitrile]"
8,62.7,"COc1cc(-c2nccc(-c3cccc(-c4ccc(CNC5CCN(C(C)=O)CC5)c(OC)n4)c3Cl)c2Cl)ccc1CN1CCC(C)(N)CC1 [Example 406, 1-(4-(((6-(3-(2-(4-((4-Amino-4-methylpiperidin-1-yl)methyl)-3-methoxyphenyl)-3-chloropyridin-4-yl)-2-chlorophenyl)-2-methoxypyridin-3-yl)-methyl)-amino)piperidin-1-yl)ethan-1-one]"
9,20,"COc1cc(-c2nccc(-c3cccc(-c4ccc(CNC5CCN(C(C)=O)CC5)c(OC)n4)c3Cl)c2Cl)ccc1CNC[C@H]1CNC(=O)C1 [Example 407, (S)-4-(((4-(4-(3-(5-(((1-Acetylpiperidin-4-yl)amino)methyl)-6-methoxypyridin-2-yl)-2-chlorophenyl)-3-chloropyridin-2-yl)-2-methoxybenzyl)amino)methyl)pyrrolidin-2-one]"
10,39.4,"COc1cc(-c2nccc(-c3cccc(-c4ccc(CN5CC6(CNC(=O)C6)C5)c(OC)n4)c3C)c2Cl)ccc1CN1CC2(CNC(=O)C2)C1 [Example 408, 2-((6-(3-(3-chloro-2-(3-methoxy-4-((7-oxo-2,6-diazaspiro[3.4]octan-2-yl)methyl)phenyl)pyridin-4-yl)-2-methylphenyl)-2-methoxypyridin-3-yl)methyl)-2,6-diazaspiro[3.4]octan-7-one]"
11,274,"COc1cc(-c2nccc(-c3cccc(-c4ccc(CN5CC6(C5)CN(C(C)=O)C6)c(OC)n4)c3C)c2Cl)ccc1CN1CC2(C1)CN(C(C)=O)C2 [Example 409, 1-(6-((6-(3-(2-(4-((6-acetyl-2,6-diazaspiro[3.3]heptan-2-yl)methyl)-3-methoxyphenyl)-3-chloropyridin-4-yl)-2-methylphenyl)-2-methoxypyridin-3-yl)methyl)-2,6-diazaspiro[3.3]heptan-2-yl)ethan-1-one]"
12,46.3,"COc1cc(-c2nccc(-c3cccc(-c4ccc(CN[C@H]5CC[C@@H](O)CC5)c(OC)n4)c3Cl)c2Cl)ccc1CN[C@H]1CC[C@@H](O)CC1 [Example 410, (1s,4s)-4-(((6-(2-Chloro-3-(3-chloro-2-(4-((((1s,4s)-4-hydroxycyclohexyl)amino)methyl)-3-methoxyphenyl)pyridin-4-yl)phenyl)-2-methoxypyridin-3-yl)methyl)amino)cyclohexan-1-ol]"
13,≥ 10000,"COc1cc(-c2nccc(-c3cccc(-c4ccc(CN5CCOCC5)c(OC)n4)c3Cl)c2Cl)ccc1CN1CCOCC1 [Example 411, 4-((6-(2-Chloro-3-(3-chloro-2-(3-methoxy-4-(morpholinomethyl)phenyl)pyridin-4-yl)phenyl)-2-methoxypyridin-3-yl)methyl)morpholine]"
14,15.7,"COc1cc(-c2nccc(-c3cccc(-c4ccc(CN5CCC(O)CC5)c(OC)n4)c3Cl)c2Cl)ccc1CN1CCC(O)CC1 [Example 412, 1-((6-(2-Chloro-3-(3-chloro-2-(4-((4-hydroxypiperidin-1-yl)methyl)-3-methoxyphenyl)pyridin-4-yl)phenyl)-2-methoxypyridin-3-yl)methyl)piperidin-4-ol]"
15,11.8,"COc1cc(-c2nccc(-c3cccc(-c4ccc(CNC5CCN(C)C(=O)C5)c(OC)n4)c3Cl)c2Cl)ccc1CNC1CCN(C)C(=O)C1 (centres unmarked) [Example 418, 4-(((6-(2-Chloro-3-(3-chloro-2-(3-methoxy-4-(((1-methyl-2-oxopiperidin-4-yl)amino)methyl)phenyl)pyridin-4-yl)phenyl)-2-methoxypyridin-3-yl)methyl)amino)-1-methylpiperidin-2-one]"
16,19.5,"COc1cc(-c2nccc(-c3cccc(-c4ccc(CNC5CCN(C(=O)N(C)C)CC5)c(OC)n4)c3Cl)c2Cl)ccc1CNC1CCN(C(=O)N(C)C)CC1 [Example 419, 4-(((6-(2-Chloro-3-(3-chloro-2-(4-(((1-(dimethylcarbamoyl)piperidin-4-yl)amino)methyl)-3-methoxyphenyl)pyridin-4-yl)phenyl)-2-methoxypyridin-3-yl)methyl)amino)-N,N-dimethylpiperidine-1-carboxamide]"
17,42.6,"COc1cc(-c2nccc(-c3cccc(-c4ccc(CNC5CCN(CC(F)F)CC5)c(OC)n4)c3Cl)c2Cl)ccc1CNC1CCN(CC(F)F)CC1 [Example 420, N-((6-(2-Chloro-3-(3-chloro-2-(4-(((1-(2,2-difluoroethyl)piperidin-4-yl)amino)methyl)-3-methoxyphenyl)pyridin-4-yl)phenyl)-2-methoxypyridin-3-yl)methyl)-1-(2,2-difluoroethyl)piperidin-4-amine]"
18,52.1,"COc1cc(-c2nccc(-c3cccc(-c4ccc(CN5CCC(NC(C)=O)CC5)c(OC)n4)c3Cl)c2Cl)ccc1CNC1CCOCC1 [Example 432, N-(1-((6-(2-Chloro-3-(3-chloro-2-(3-methoxy-4-(((tetrahydro-2H-pyran-4-yl)amino)methyl)phenyl)pyridin-4-yl)phenyl)-2-methoxypyridin-3-yl)methyl)piperidin-4-yl)acetamide]"
19,39.9,"COc1cc(-c2nccc(-c3cccc(-c4ccc(CN5CC6(CNC(=O)C6)C5)c(OC)n4)c3Cl)c2C#N)ccc1CN1CC2(CNC(=O)C2)C1 [Example 433, 4-(2-Chloro-3-(6-methoxy-5-((7-oxo-2,6-diazaspiro[3.4]octan-2-yl)methyl)pyridin-2-yl)phenyl)-2-(3-methoxy-4-((7-oxo-2,6-diazaspiro[3.4]octan-2-yl)methyl)phenyl)nicotinonitrile]"
20,37.8,"COc1cc(-c2nccc(-c3cccc(-c4ccc(CNC5CCOCC5)c(OC)n4)c3Cl)c2C#N)ccc1CNC1CCOCC1 [Example 434, 4-(2-Chloro-3-(6-methoxy-5-(((tetrahydro-2H-pyran-4-yl)amino)methyl)pyridin-2-yl)phenyl)-2-(3-methoxy-4-(((tetrahydro-2H-pyran-4-yl)amino)methyl)phenyl)nicotinonitrile]"
21,9.95,"COc1cc(-c2nccc(-c3cccc(-c4ccc(CN5CC[C@H](O)C5)c(OC)n4)c3Cl)c2Cl)ccc1CN1CC[C@H](O)C1 [Example 435, (S)-1-((6-(2-Chloro-3-(3-chloro-2-(4-(((S)-3-hydroxypyrrolidin-1-yl)methyl)-3-methoxyphenyl)pyridin-4-yl)phenyl)-2-methoxypyridin-3-yl)methyl)pyrrolidin-3-ol]"
22,134,"COc1cc(-c2nccc(-c3cccc(-c4ccc(CN(C)C5CCOCC5)c(OC)n4)c3Cl)c2Cl)ccc1CNC1CCN(C(C)=O)CC1 [Example 436, 1-(4-((4-(3-chloro-4-(2-chloro-3-(6-methoxy-5-((methyl(tetrahydro-2H-pyran-4-yl)amino)methyl)pyridin-2-yl)phenyl)pyridin-2-yl)-2-methoxybenzyl)amino)piperidin-1-yl)ethan-1-one]"
23,157,"COc1cc(-c2nccc(-c3cccc(-c4ccc(CNC5CCN(CC(F)(F)F)CC5)c(OC)n4)c3Cl)c2Cl)ccc1CNC1CCN(CC(F)(F)F)CC1 [Example 437, N-((6-(2-Chloro-3-(3-chloro-2-(3-methoxy-4-(((1-(2,2,2-trifluoroethyl)piperidin-4-yl)amino)methyl)phenyl)pyridin-4-yl)phenyl)-2-methoxypyridin-3-yl)methyl)-1-(2,2,2-trifluoroethyl)piperidin-4-amine]"
